Values joined by “and” are separate entries in the source; they are usually repeats but may differ in a detail not shown here. Equal entries are not always repeated.
Columns and labels:
[1] = biological target: T1, human Plk4 kinase domain (aa 2-275) (Homo sapiens, UniProt O00444); assay: Plk4 kinase assay (ADP-Glo); format: biochemical
T1 construct: purified 6×His-tagged human Plk4 kinase domain (aa 2-275); 6xHis; made in house; host or cells: E. coli
T1 sequence (O00444 2-275): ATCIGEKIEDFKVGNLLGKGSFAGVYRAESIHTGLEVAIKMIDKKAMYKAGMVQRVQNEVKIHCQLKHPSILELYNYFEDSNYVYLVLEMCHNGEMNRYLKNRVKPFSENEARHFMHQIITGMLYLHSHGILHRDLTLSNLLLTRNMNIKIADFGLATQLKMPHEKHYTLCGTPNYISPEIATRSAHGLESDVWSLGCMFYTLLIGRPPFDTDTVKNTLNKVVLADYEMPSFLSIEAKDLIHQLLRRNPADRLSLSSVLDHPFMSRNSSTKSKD
Summary of the method: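 Enzyme at 2.5-10 nM final, pH 8.0, reacted 4-16 hours at 25° C; ADP generation read by ADP-Glo luminescence. Ki derived from IC50 by Cheng-Prusoff or, for tight binders, Copeland formalism.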

[2] = biological target: T2, inhibitor-resistant mutant Plk4 (G95L) (Homo sapiens, UniProt O00444, G95L); assay: Plk4 (G95L) mutant kinase assay; format: biochemical
T2 construct: Plk4 assays used equal volumes of: (1) purified 6×His-tagged human Plk4 kinase domain (aa 2-275); 6xHis; made in house; host or cells: E. coli
Experimental: Kinase assays. […] Reactions were allowed to proceed for 4-16 hours at 25° C. Detection was performed using ADP-Glo reagent (Promega), following manufacturer's instructions. Luminescence was measured on an Infinite M1000 plate reader (Tecan). Data were fit using Prism (GraphPad) and Kis were calculated from IC50 data using the Cheng and Prusoff equation (37) or the Copeland formalism for tight-binding inhibitors (38).

human Aurora A = biological target: T3, human Aurora A (Homo sapiens, UniProt O14965); assay: Aurora A kinase assay (ADP-Glo); format: biochemical
T3 construct: purchased Millipore
T3 sequence (O14965 1-403): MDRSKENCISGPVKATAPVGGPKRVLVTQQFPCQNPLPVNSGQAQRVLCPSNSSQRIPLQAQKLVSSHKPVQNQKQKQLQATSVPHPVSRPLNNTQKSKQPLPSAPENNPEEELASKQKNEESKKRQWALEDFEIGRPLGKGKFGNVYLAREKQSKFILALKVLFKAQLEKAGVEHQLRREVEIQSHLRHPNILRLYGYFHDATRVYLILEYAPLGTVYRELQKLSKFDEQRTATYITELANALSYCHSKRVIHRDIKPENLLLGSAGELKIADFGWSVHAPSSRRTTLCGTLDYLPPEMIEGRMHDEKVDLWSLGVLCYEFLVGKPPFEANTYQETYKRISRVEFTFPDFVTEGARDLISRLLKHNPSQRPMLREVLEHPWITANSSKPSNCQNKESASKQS
Experimental: LRRASLG)+inhibitors arrayed in dose response (added as described above). […] Detection, measurement and data analysis were performed as described above.

Aurora B = biological target: T4, Aurora B (Homo sapiens, UniProt Q96GD4); assay: Aurora B radiometric kinase assay (Reaction Biology); format: biochemical
T4 construct: Reaction Biology (Malvern, Pa.), contract assay
Experimental: Aurora B and other radiometric kinase assays were performed by Reaction Biology (Malvern, Pa.).

TNK1 = biological target: T5, TNK1 (Homo sapiens, UniProt Q13470); assay: Radiometric kinase assay, off-target TNK1; format: biochemical
T5 construct: Reaction Biology (Malvern, Pa.), contract assay
T5 sequence (Q13470 1-666): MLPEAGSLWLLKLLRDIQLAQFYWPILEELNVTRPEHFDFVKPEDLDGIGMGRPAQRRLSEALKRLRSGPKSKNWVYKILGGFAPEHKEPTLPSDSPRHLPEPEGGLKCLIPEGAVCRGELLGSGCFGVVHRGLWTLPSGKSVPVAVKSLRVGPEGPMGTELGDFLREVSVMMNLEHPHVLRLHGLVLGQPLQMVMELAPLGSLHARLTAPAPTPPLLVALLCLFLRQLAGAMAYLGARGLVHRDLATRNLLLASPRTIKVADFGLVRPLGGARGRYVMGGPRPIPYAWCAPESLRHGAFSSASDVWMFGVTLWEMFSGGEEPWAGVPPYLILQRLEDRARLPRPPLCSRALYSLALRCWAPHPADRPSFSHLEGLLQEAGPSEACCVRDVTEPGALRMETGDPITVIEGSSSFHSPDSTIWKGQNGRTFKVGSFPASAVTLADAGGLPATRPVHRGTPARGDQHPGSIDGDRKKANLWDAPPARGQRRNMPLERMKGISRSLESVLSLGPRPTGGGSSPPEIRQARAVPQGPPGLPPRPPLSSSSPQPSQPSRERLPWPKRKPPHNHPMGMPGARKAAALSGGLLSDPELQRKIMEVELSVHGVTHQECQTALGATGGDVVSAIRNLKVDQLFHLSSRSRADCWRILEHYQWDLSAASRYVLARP
Experimental: (§1) Aurora B and other radiometric kinase assays were performed by Reaction Biology (Malvern, Pa.). Kinome profiling of centrinone and centrinone-B was performed by DiscoveRx (San Diego, Calif.).

LRRK2 = biological target: T6, LRRK2 (Homo sapiens, UniProt Q5S007); assay: Radiometric kinase assay, off-target LRRK2; format: biochemical
T6 construct: Reaction Biology (Malvern, Pa.), contract assay
Experimental: as §1

ROS/ROS1 = ROS/ROS1 (Homo sapiens, UniProt P08922); assay: Radiometric kinase assay, off-target ROS/ROS1; format: biochemical
Experimental: as §1

FLT4/VEGFR3 = FLT4/VEGFR3 (Homo sapiens, UniProt P35916); assay: Radiometric kinase assay, off-target FLT4/VEGFR3; format: biochemical
Experimental: as §1

RET = biological target: T7, RET (Homo sapiens, UniProt P07949); assay: Radiometric kinase assay, off-target RET; format: biochemical
T7 construct: Reaction Biology (Malvern, Pa.), contract assay
Experimental: as §1

JAK2 = biological target: T8, JAK2 (Homo sapiens, UniProt O60674); assay: Radiometric kinase assay, off-target JAK2; format: biochemical
T8 construct: Reaction Biology (Malvern, Pa.), contract assay
Experimental: as §1

SRPK1 = biological target: T9, SRPK1 (Homo sapiens, UniProt Q96SB4); assay: Radiometric kinase assay, off-target SRPK1; format: biochemical
T9 construct: Reaction Biology (Malvern, Pa.), contract assay
Experimental: as §1

centrosomes in cells = assay: Cellular centrosome depletion (cell line not stated); format: cell-based; conditions: cellular activity, FIG. 1A
Experimental: Centriole depletion assay for compound screening. 1,500 NIH/3T3 cells or 3,500 HCT116 cells were seeded into 96-well SCREENSTAR microplates (Greiner) and treated with inhibitors in dose response, added from DMSO stocks. After 3 days, cells were fixed directly in the wells with 100% methanol (−20° C., 10 minutes). The fixed cells were washed with PBS and stained with primary antibodies against γ-tubulin and, for a subset of compounds, Cep192. Cells were then stained with Alexa-488 donkey anti-mouse and Alexa-647 goat anti-rabbit secondary antibodies. Cells were imaged using either a Model 500 LumaScope (Etaluma) or an EVOS FL (Advanced Microscopy Group/Life Technologies), and centriole depletion was determined by scoring the percentage of cells without visible γ-tubulin/Cep192 foci.

RPE1 cells = assay: Passaging assay and flow cytometry, RPE1; format: cell-based, human; conditions: RPE1, addition Day 0, washout Day 8
Experimental: Passaging assays. Cells were seeded into 10 cm tissue culture plates at 150,000 (HeLa, NIH/3T3 and RPE1) or 200,000 cells/plate (primary fibroblasts). Compounds were added at the indicated concentrations. At 4-day intervals, cells were harvested, counted using a TC10 cell counter, and re-seeded into new plates at the densities above. Results are from 2 independent experiments.
Flow cytometry. Cells were seeded into 15 cm tissue culture plates such that each plate was 50-80% confluent at the time of harvesting. Cells were de-adhered by trypsinization and pelleted in 15 ml tubes by centrifugation. Each pellet was resuspended in 0.3 mL PBS, and 0.7 mL ice-cold 100% ethanol was added to the tube while gently vortexing. Fixed cells were stored at 4° C. for up to 2 weeks. For DNA content analysis, fixed cells were pelleted, washed twice with PBS, and resuspended in 0.5 mL PBS+2% BSA and Alexa488-conjugated anti-p-H3(Ser10) antibody. Samples were incubated for 1 hour at 4° C., then washed twice with PBS+2% BSA. Pellets were resuspended in 1 mL PBS+2% BSA, 10 μg/ml propidium iodide (Sigma-Aldrich), 500 µg/ml RNAse A (Thermo Scientific). Samples were incubated at 37° C. for 30 minutes, then transferred to 12×75 mm tubes for analysis. Data were acquired using FACSDiva software on a LSR II flow cytometer (BD Biosciences). 50,000 cells were analyzed per condition. Cell cycle fitting was performed using ModFit LT (Verity Software House).

p53 = assay: Western blotting, RPE1; format: cell-based, human
Experimental: Western blotting. […] Cell extracts were stored at −80° C. until use.
For p53, p-p53(S33), p-p53(S392), p-p38(T180/Y182), acetyl-p53(K382), LATS2, YAP, MDM2, MAPKAPK-2 and GFP, blocking and antibody incubations were performed in TBS-T+5% non-fat dry milk. For p-YAP(S127), p-p53(S9), p-p53(S15), p-p53(S20), p-p53(S37), p-p53(S315), p21 and p-MAPKAPK-2(T334), blocking and antibody incubations were performed in TBS-T+5% BSA. Detection was performed using HRP-conjugated secondary antibodies (GE Healthcare) with WesternBright Sirius (Advansta) or SuperSignal West Femto (Thermo Scientific) substrates. Membranes were imaged on a ChemiDoc MP system (Bio-Rad). Membranes were stripped and reprobed with antibodies against α-tubulin or GAPDH as loading controls.

p38 = conditions: RPE1, osmotic stress
Experimental: MAPKAPK-2 activation assay. RPE1 cells on 10 cm plates were treated with DMSO or 10 μM SB203580 for 2 hours prior to induction of stress.
Western blotting. Asynchronously growing cells from 10 cm plates were harvested at 50-80% confluence and lysed by sonication in RIPA buffer+protease and phosphatase inhibitor cocktail (Thermo Scientific). Cell extracts were stored at −80° C. until use. Before use, concentrations of extracts were normalized using a Bio-Rad Protein Assay (Bio-Rad). For every sample, 25-50 μg protein/lane was run on Mini-PROTEAN gels (Bio-Rad), and transferred to PVDF membranes using a TransBlot Turbo system (Bio-Rad).

[3] = off-target from DiscoveRx kinome profiling

Sequence of ROS/ROS1 (P08922 28-2347): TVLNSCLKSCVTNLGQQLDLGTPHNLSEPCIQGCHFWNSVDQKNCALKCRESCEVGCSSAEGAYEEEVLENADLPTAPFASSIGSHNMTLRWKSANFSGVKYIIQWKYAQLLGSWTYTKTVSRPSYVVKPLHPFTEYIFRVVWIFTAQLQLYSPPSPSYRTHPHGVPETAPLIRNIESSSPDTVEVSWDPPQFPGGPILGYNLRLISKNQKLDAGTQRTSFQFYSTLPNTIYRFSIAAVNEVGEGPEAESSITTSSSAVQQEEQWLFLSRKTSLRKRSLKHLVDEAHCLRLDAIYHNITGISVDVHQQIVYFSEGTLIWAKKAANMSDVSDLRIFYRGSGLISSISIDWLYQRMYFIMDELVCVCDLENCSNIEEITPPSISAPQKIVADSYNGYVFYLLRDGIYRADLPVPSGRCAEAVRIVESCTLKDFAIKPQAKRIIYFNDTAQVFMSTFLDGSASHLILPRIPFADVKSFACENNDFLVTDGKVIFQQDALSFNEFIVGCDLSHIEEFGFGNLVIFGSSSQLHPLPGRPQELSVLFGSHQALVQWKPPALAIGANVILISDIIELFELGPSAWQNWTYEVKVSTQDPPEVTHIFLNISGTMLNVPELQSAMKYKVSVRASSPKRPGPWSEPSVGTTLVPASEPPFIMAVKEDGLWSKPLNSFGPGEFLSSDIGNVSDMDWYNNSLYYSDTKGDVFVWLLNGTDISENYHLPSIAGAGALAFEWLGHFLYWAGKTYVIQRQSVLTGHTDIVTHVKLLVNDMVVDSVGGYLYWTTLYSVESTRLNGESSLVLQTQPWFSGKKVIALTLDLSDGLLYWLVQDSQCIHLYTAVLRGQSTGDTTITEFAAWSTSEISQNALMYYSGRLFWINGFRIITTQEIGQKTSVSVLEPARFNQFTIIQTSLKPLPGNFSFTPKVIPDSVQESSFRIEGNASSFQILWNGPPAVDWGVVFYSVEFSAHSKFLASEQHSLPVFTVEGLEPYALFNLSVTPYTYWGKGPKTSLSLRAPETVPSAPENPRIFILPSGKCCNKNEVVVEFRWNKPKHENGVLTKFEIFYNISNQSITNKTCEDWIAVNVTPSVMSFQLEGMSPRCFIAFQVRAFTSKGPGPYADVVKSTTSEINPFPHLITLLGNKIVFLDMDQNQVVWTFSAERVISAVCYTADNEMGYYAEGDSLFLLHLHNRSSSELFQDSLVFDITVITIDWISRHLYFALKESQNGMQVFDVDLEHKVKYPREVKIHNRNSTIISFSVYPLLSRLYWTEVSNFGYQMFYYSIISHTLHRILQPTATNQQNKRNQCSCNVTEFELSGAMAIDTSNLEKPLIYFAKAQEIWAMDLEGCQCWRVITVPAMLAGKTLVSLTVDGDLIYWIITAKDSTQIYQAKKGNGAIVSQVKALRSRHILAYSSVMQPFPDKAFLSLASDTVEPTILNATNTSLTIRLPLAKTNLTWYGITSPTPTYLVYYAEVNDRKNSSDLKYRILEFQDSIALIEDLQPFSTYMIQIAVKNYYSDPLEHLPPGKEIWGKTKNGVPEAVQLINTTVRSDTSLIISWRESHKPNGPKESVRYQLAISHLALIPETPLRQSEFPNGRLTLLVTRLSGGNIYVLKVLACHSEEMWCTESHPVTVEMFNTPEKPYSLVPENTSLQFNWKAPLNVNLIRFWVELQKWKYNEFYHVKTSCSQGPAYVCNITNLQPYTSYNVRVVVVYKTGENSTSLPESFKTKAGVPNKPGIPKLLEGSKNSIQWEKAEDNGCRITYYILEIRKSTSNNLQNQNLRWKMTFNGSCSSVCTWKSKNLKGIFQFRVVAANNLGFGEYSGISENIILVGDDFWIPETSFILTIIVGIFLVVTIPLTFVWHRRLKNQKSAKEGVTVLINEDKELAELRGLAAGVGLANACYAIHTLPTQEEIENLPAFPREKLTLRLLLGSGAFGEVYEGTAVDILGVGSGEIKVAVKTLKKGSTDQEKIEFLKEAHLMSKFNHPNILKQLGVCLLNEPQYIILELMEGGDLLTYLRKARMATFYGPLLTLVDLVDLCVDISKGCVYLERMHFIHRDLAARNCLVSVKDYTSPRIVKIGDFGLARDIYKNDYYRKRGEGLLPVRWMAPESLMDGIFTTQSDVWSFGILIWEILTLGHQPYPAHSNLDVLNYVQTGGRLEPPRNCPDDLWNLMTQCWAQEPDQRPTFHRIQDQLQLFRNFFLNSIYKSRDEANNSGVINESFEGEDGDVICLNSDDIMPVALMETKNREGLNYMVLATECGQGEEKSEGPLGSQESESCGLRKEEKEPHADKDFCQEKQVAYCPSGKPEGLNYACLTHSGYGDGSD
T8 sequence (O60674 whole entry): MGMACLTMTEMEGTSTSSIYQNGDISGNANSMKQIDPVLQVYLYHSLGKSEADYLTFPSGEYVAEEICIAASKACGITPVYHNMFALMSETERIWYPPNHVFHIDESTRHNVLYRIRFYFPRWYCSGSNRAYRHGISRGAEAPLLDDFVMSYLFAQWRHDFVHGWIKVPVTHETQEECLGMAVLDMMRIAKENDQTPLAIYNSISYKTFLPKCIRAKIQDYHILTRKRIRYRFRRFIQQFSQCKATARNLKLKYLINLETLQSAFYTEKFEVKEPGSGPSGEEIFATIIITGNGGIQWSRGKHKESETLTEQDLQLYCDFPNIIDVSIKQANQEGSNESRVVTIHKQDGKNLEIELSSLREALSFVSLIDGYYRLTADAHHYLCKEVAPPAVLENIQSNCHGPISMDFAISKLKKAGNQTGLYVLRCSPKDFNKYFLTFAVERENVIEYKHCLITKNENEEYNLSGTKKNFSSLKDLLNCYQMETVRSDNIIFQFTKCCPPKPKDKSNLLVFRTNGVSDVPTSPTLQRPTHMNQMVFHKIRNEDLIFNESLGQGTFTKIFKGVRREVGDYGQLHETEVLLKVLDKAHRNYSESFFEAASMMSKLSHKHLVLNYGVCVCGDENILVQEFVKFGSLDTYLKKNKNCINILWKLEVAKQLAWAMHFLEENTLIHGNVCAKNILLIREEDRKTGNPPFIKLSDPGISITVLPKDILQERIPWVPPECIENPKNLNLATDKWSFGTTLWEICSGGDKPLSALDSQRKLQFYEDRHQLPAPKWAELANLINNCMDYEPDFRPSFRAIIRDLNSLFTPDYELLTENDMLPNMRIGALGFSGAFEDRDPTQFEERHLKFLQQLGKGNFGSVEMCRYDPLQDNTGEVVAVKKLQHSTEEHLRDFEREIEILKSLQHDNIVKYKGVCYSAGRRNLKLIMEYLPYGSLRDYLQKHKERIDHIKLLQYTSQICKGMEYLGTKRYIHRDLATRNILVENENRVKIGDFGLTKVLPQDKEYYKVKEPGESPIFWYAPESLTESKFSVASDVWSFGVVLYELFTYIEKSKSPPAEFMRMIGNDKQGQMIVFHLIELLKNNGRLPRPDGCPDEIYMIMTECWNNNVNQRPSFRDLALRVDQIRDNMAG
T7 sequence (P07949 29-1114): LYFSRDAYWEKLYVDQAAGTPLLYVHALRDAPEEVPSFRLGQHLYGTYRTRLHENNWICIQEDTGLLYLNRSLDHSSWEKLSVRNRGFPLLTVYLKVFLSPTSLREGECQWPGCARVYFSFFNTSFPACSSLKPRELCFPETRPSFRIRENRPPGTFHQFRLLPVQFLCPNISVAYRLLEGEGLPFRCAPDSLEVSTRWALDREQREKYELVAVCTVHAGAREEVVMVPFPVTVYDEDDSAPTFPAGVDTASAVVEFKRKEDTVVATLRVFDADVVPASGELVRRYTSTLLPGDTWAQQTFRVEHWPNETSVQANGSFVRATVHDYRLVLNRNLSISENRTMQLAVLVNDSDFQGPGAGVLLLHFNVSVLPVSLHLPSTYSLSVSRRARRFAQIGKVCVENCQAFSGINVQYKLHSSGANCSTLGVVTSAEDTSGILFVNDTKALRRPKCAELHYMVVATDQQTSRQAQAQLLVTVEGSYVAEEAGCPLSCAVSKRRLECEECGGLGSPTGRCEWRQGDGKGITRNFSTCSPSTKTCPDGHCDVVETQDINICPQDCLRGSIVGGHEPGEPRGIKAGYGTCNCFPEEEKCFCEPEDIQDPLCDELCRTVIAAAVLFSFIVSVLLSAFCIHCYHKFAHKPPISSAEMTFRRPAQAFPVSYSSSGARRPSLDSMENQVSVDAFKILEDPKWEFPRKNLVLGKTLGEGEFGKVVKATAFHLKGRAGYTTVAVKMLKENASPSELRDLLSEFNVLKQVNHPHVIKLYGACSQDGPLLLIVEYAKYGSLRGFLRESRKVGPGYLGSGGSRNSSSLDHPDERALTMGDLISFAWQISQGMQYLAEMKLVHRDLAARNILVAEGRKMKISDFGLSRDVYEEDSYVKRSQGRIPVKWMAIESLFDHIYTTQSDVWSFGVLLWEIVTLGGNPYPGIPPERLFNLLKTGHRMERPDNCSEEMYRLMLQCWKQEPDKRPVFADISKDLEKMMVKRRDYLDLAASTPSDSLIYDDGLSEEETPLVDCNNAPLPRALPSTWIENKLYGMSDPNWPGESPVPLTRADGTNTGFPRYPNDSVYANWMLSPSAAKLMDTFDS
T2 sequence (O00444 2-275 G95L): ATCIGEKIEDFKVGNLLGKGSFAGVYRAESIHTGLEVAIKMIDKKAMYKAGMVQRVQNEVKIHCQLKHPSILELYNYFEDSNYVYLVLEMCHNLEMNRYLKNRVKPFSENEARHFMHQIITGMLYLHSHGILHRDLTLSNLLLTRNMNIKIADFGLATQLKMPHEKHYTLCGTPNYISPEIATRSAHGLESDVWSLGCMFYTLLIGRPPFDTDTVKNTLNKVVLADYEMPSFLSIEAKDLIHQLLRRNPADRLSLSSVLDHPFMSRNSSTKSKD

With `COc1c(Nc2cc(C)[nH]n2)nc(Sc2ccc(S(=O)(=O)Cc3cccc([N+](=O)[O-])c3F)cc2F)nc1N1CCCCC1` [Centrinone-B, 2-((2-fluoro-4-((2-fluoro-3-nitrobenzyl)sulfonyl)phenyl)thio)-5-methoxy-N-(5-methyl-1H-pyrazol-3-yl)-6-(piperidin-1-yl)pyrimidin-4-amine] the Ki [1] was 0.6 nM and 0.59 nM, the Ki [2] was 498 nM and the “Plk4 selectivity, Ki(Plk4 G95L)/Ki(Plk4)” value [2] was 847. The Ki (human Aurora A) was 1240 nM, the “Plk4 selectivity, Ki(Aurora A)/Ki(Plk4)” value (human Aurora A) was 2108 and the Ki (Aurora B) was 5600 nM. For the same compound, the “Plk4 selectivity, Ki(Aurora B)/Ki(Plk4)” value (Aurora B) was 9523, the “Plk4 selectivity, Ki(TNK1)/Ki(Plk4)” value (TNK1) was 10 and the Ki (TNK1; [3]) was 6.04 nM. The “Plk4 selectivity, Ki(LRRK2)/Ki(Plk4)” value (LRRK2) was 13, the Ki (LRRK2; [3]) was 7.66 nM and the “Plk4 selectivity, Ki(ROS/ROS1)/Ki(Plk4)” value (ROS/ROS1) was 153. For the same compound, the Ki (ROS/ROS1; [3]) was 90.1 nM, the “Plk4 selectivity, Ki(FLT4/VEGFR3)/Ki(Plk4)” value (FLT4/VEGFR3) was 99 and the Ki (FLT4/VEGFR3; [3]) was 58 nM. The “Plk4 selectivity, Ki(RET)/Ki(Plk4)” value (RET) was 332, the Ki (RET; [3]) was 195 nM and the “Plk4 selectivity, Ki(JAK2)/Ki(Plk4)” value (JAK2) was over 847. The Ki (JAK2; [3]) was over 500 nM, the “Plk4 selectivity, Ki(SRPK1)/Ki(Plk4)” value (SRPK1) was over 847 and the Ki (SRPK1; [3]) was over 500 nM. For the same compound, the centrosome depletion at (centrosomes in cells) was 500 nM.
In the case of `CCOc1cc(C(C)(C)C)ccc1C1=N[C@@](C)(c2ccc(Cl)cc2)[C@@](C)(c2ccc(Cl)cc2)N1C(=O)N1CCN(CCCS(C)(=O)=O)CC1` [R7112], the proliferation after washout (RPE1 cells) is reported as “led to resumption of proliferation” and the p53 levels (p53) is reported as “raised p53 levels”.
`C[S+]([O-])c1ccc(-c2nc(-c3ccncc3)c(-c3ccc(F)cc3)[nH]2)cc1` (stereo not shown) [SB203580] was tested, and the “phosphorylation of MAPKAPK-2 by p38” value (p38) was “blocks phosphorylation of MAPKAPK-2”.
